# According to publication PMC12217481, “Structure and mechanism of taniborbactam inhibition of the cefepime-hydrolyzing, partial R2-loop deletion Pseudomonas-derived cephalosporinase variant PDC-88” (Antimicrobial Agents and Chemotherapy, 2025):
# Columns and labels:
# [1] = target: T1, PDC-3 (Pseudomonas aeruginosa, UniProt P24735, T105A); experiment: Competitive inhibition assay with nitrocefin (Ki app, IC50), PDC-3; type: biochemical
# T1 construct: The PDC-3 expression construct was created in a similar manner but starting with a previously described pBC SK(−) vector; made in house; host or cells: E. coli BL21-CodonPlus (DE3)-RP, pET24a(+)
# Protocol: (§1) β-Lactamase kinetic and inhibitor constants were determined using an Agilent 8453 UV-Visible Spectrophotometer to record progress curves and determine initial rates and other kinetic parameters as appropriate. Reactions were carried out in 1× phosphate-buffered saline (PBS) (pH 7.4) at room temperature in a 0.2 cm path-length quartz cuvette (Hellma Analytics). Reads were taken every 10 s to minimize UV-mediated background hydrolysis.
# (§2) Competitive inhibition assays were used to determine IC50 and Ki app. Nitrocefin (a reporter substrate), enzyme, and inhibitor were mixed, and initial velocities were determined. […] Inverse steady-state velocities (1/V0) were plotted against inhibitor concentration ([I]), forming a straight line. The y-intercept of this line was divided by the slope of the line to yield Ki app obs and IC50 values. Apparent Ki values (Ki app) were determined by correcting for the affinity of nitrocefin in the active site using equation 2:
# (§3) (2) KI app= KI app{obs/1+[S]/KM NCF
# [2] = target: T2, PDC-88 (Pseudomonas aeruginosa, UniProt P24735, DEL316-317/G27D/G391A/T105A/V205L/V356I); experiment: biochemical; type: biochemical
# T2 construct: NdeI 5′-[…]-3ʹ and BamHI 5ʹ-[…]-3ʹ; His tag removed) (N); made in house; host or cells: E. coli BL21-CodonPlus (DE3)-RP, pET24a(+)
# Protocol: as §1, §2, §3
# [3] = tested on: isogenic E. coli strains expressing PDC R2-loop deletion variants (PDC-88 to PDC-92); experiment: MIC changes across the five isogenic E. coli R2-loop deletion strains; type: cell-based, Escherichia coli; conditions: inhibitor at constant 4 µg/mL; R2-loop deletion variant strains
# Protocol: Modal broth microdilution MICs (or median broth microdilution MICs where appropriate) were determined in accordance with Clinical and Laboratory Standards Institute (CLSI) M07 guidelines ([43]). Isogenic E. coli DH10B cells expressing the abovementioned plasmid-encoded PDC constructs were used. […] CLSI quality control strains Escherichia coli NCTC 13353, E. coli ATCC 35218, and Klebsiella pneumoniae ATCC 700603 were used during testing ([24]).
# [4] = target: T1, PDC-3; experiment: Thermal denaturation by circular dichroism, PDC-3; type: binding
# Protocol: Competitive enzyme inhibitors can increase enzyme thermal stability as a result of binding to the active site.
# Circular dichroism (CD) melting curve experiments were conducted using a J-815 spectropolarimeter (Jasco) and a Peltier effect temperature controller. Suprasil quartz cuvettes with a 0.1 cm path length (Hellma Analytics) were used in all experiments. […] Two-state behavior was observed, as indicated by identical curves at each wavelength. Equilibrium constants were calculated, and the melting temperature, Tm, was calculated from equilibrium denaturation data as previously described ([28]).
# [5] = target: T1, PDC-3; experiment: Off-rate (koff) by jump-dilution, PDC-3; type: biochemical
# Protocol: (§4) The off-rates (koff) were determined using a jump-dilution method ([44]). […] The enzyme was serially diluted to 1 nM, and 100 μM nitrocefin was added to initiate the reaction. Recovery progress covers were recorded at 482 nm. The koff value was determined by fitting the progress curves to a single exponential equation. The half-life was determined by dividing ln(2) by koff.
# [6] = target: T2, PDC-88; experiment: Off-rate (koff) by jump-dilution, PDC-88; type: biochemical
# Protocol: as §4
# [7] = target: T2, PDC-88; type: binding
# Protocol: Circular dichroism (CD) melting curve experiments were conducted using a J-815 spectropolarimeter (Jasco) and a Peltier effect temperature controller. Suprasil quartz cuvettes with a 0.1 cm path length (Hellma Analytics) were used in all experiments. […] Equilibrium constants were calculated, and the melting temperature, Tm, was calculated from equilibrium denaturation data as previously described ([28]).
structure (smiles),measurement,setting,value
"NCCN[C@H]1CC[C@H](CC(=O)N[C@H]2Cc3cccc(C(=O)O)c3OB2O)CC1 [TAN, taniborbactam]",Ki app lower compared to avibactam,[1],4.1 fold
same,Ki app lower than TZB,[1],40 fold
same,Ki,[1]; nitrocefin reporter substrate,660 ± 70 nM
same,IC50,"[1]; nitrocefin reporter substrate, 5 min preincubation",16 ± 2 nM
same,IC50,[2],22 ± 2 nM
same,Ki,[2],610 ± 60 nM
same,Ki app lower compared to avibactam,[2]; PDC-88,9 fold
same,Ki app lower than TZB,[2]; PDC-88,95 fold
same,restoration of FEP activity / susceptibility by inhibitor,[3],restoring FEP activity in all cases
same,increase of Tm upon addition of inhibitor,[4]; PDC-3,+9 °C
same,Tm,"[4]; PDC-3 with inhibitor, circular dichroism, PDC-3 alone 52°C",61 °C
same,koff,[5],0.0012 ± 0.0001 s⁻¹
same,koff,[6],0.0007 ± 0.0001 s⁻¹
same,increase of Tm upon addition of inhibitor,[7]; PDC-88,+7 °C
same,Tm,"[7]; PDC-88 with inhibitor, circular dichroism, PDC-88 alone 53°C",60 °C
